Reference: the NIST ThermoML archive (doi:10.1021/acs.jced.9b00752)

Assay: mn = molality of the nth substance listed, in mol/kg
Details: 100 kPa, Liquid, Vibrating tube method

N[C@@H](Cc1ccccc1)C(=O)O [L-phenylalanine] + O
Details	mass density [kg/m3]
273.65 K, m1 = 0.0036	1000.05
273.65 K, m1 = 0.011	1000.4
273.65 K, m1 = 0.0183	1000.75
273.65 K, m1 = 0.033	1001.44
273.65 K, m1 = 0.0443	1002.02
273.65 K, m1 = 0.0536	1002.42
273.65 K, m1 = 0.0623	1002.84
273.65 K, m1 = 0.074	1003.38
273.65 K, m1 = 0.0855	1003.95
273.65 K, m1 = 0.0981	1004.56
273.65 K, m1 = 0.1158	1005.44
274.15 K, m1 = 0.0036	1000.08
274.15 K, m1 = 0.011	1000.42
274.15 K, m1 = 0.0183	1000.77
274.15 K, m1 = 0.033	1001.46
274.15 K, m1 = 0.0443	1002.04
274.15 K, m1 = 0.0536	1002.44
274.15 K, m1 = 0.0623	1002.86
274.15 K, m1 = 0.074	1003.4
274.15 K, m1 = 0.0855	1003.96
274.15 K, m1 = 0.0981	1004.58
274.15 K, m1 = 0.1158	1005.46
274.65 K, m1 = 0.0036	1000.1
274.65 K, m1 = 0.011	1000.45
274.65 K, m1 = 0.0183	1000.79
274.65 K, m1 = 0.033	1001.48
274.65 K, m1 = 0.0443	1002.06
274.65 K, m1 = 0.0536	1002.46
274.65 K, m1 = 0.0623	1002.87
274.65 K, m1 = 0.074	1003.42
274.65 K, m1 = 0.0855	1003.98
274.65 K, m1 = 0.0981	1004.59
274.65 K, m1 = 0.1158	1005.47
275.15 K, m1 = 0.0036	1000.12
275.15 K, m1 = 0.011	1000.46
275.15 K, m1 = 0.0183	1000.81
275.15 K, m1 = 0.033	1001.49
275.15 K, m1 = 0.0443	1002.07
275.15 K, m1 = 0.0536	1002.47
275.15 K, m1 = 0.0623	1002.88
275.15 K, m1 = 0.074	1003.43
275.15 K, m1 = 0.0855	1003.99
275.15 K, m1 = 0.0981	1004.6
275.15 K, m1 = 0.1158	1005.47
275.65 K, m1 = 0.0036	1000.13
275.65 K, m1 = 0.011	1000.48
275.65 K, m1 = 0.0183	1000.82
275.65 K, m1 = 0.033	1001.5
275.65 K, m1 = 0.0443	1002.08
275.65 K, m1 = 0.0536	1002.48
275.65 K, m1 = 0.0623	1002.89
275.65 K, m1 = 0.074	1003.43
275.65 K, m1 = 0.0855	1003.99
275.65 K, m1 = 0.0981	1004.6
275.65 K, m1 = 0.1158	1005.47
276.15 K, m1 = 0.0036	1000.14
276.15 K, m1 = 0.011	1000.49
276.15 K, m1 = 0.0183	1000.83
276.15 K, m1 = 0.033	1001.51
276.15 K, m1 = 0.0443	1002.09
276.15 K, m1 = 0.0536	1002.48
276.15 K, m1 = 0.0623	1002.89
276.15 K, m1 = 0.074	1003.43
276.15 K, m1 = 0.0855	1004
276.15 K, m1 = 0.0981	1004.6
276.15 K, m1 = 0.1158	1005.47
276.65 K, m1 = 0.0036	1000.14
276.65 K, m1 = 0.011	1000.49
276.65 K, m1 = 0.0183	1000.83
276.65 K, m1 = 0.033	1001.51
276.65 K, m1 = 0.0443	1002.09
276.65 K, m1 = 0.0536	1002.48
276.65 K, m1 = 0.0623	1002.89
276.65 K, m1 = 0.074	1003.43
276.65 K, m1 = 0.0855	1003.99
276.65 K, m1 = 0.0981	1004.59
276.65 K, m1 = 0.1158	1005.46
277.15 K, m1 = 0.0036	1000.14
277.15 K, m1 = 0.011	1000.49
277.15 K, m1 = 0.0183	1000.83
277.15 K, m1 = 0.033	1001.51
277.15 K, m1 = 0.0443	1002.09
277.15 K, m1 = 0.0536	1002.47
277.15 K, m1 = 0.0623	1002.89
277.15 K, m1 = 0.074	1003.43
277.15 K, m1 = 0.0855	1003.98
277.15 K, m1 = 0.0981	1004.59
277.15 K, m1 = 0.1158	1005.45
277.65 K, m1 = 0.0036	1000.14
277.65 K, m1 = 0.011	1000.49
277.65 K, m1 = 0.0183	1000.83
277.65 K, m1 = 0.033	1001.5
277.65 K, m1 = 0.0443	1002.08
277.65 K, m1 = 0.0536	1002.47
277.65 K, m1 = 0.0623	1002.88
277.65 K, m1 = 0.074	1003.42
277.65 K, m1 = 0.0855	1003.97
277.65 K, m1 = 0.0981	1004.57
277.65 K, m1 = 0.1158	1005.44
278.15 K, m1 = 0.0036	1000.13
278.15 K, m1 = 0.011	1000.48
278.15 K, m1 = 0.0183	1000.82
278.15 K, m1 = 0.033	1001.49
278.15 K, m1 = 0.0443	1002.07
278.15 K, m1 = 0.0536	1002.46
278.15 K, m1 = 0.0623	1002.87
278.15 K, m1 = 0.074	1003.41
278.15 K, m1 = 0.0855	1003.96
278.15 K, m1 = 0.0981	1004.56
278.15 K, m1 = 0.1158	1005.42
278.65 K, m1 = 0.0036	1000.12
278.65 K, m1 = 0.011	1000.47
278.65 K, m1 = 0.0183	1000.81
278.65 K, m1 = 0.033	1001.48
278.65 K, m1 = 0.0443	1002.05
278.65 K, m1 = 0.0536	1002.44
278.65 K, m1 = 0.0623	1002.85
278.65 K, m1 = 0.074	1003.39
278.65 K, m1 = 0.0855	1003.94
278.65 K, m1 = 0.0981	1004.54
278.65 K, m1 = 0.1158	1005.4
279.15 K, m1 = 0.0036	1000.11
279.15 K, m1 = 0.011	1000.45
279.15 K, m1 = 0.0183	1000.79
279.15 K, m1 = 0.033	1001.47
279.15 K, m1 = 0.0443	1002.04
279.15 K, m1 = 0.0536	1002.42
279.15 K, m1 = 0.0623	1002.83
279.15 K, m1 = 0.074	1003.37
279.15 K, m1 = 0.0855	1003.92
279.15 K, m1 = 0.0981	1004.51
279.15 K, m1 = 0.1158	1005.38
279.65 K, m1 = 0.0036	1000.09
279.65 K, m1 = 0.011	1000.43
279.65 K, m1 = 0.0183	1000.77
279.65 K, m1 = 0.033	1001.45
279.65 K, m1 = 0.0443	1002.02
279.65 K, m1 = 0.0536	1002.4
279.65 K, m1 = 0.0623	1002.81
279.65 K, m1 = 0.074	1003.34
279.65 K, m1 = 0.0855	1003.89
279.65 K, m1 = 0.0981	1004.49
279.65 K, m1 = 0.1158	1005.35
280.15 K, m1 = 0.0036	1000.07
280.15 K, m1 = 0.011	1000.41
280.15 K, m1 = 0.0183	1000.75
280.15 K, m1 = 0.033	1001.42
280.15 K, m1 = 0.0443	1001.99
280.15 K, m1 = 0.0536	1002.37
280.15 K, m1 = 0.0623	1002.78
280.15 K, m1 = 0.074	1003.32
280.15 K, m1 = 0.0855	1003.87
280.15 K, m1 = 0.0981	1004.46
280.15 K, m1 = 0.1158	1005.32
280.65 K, m1 = 0.0036	1000.04
280.65 K, m1 = 0.011	1000.39
280.65 K, m1 = 0.0183	1000.73
280.65 K, m1 = 0.033	1001.39
280.65 K, m1 = 0.0443	1001.96
280.65 K, m1 = 0.0536	1002.35
280.65 K, m1 = 0.0623	1002.75
280.65 K, m1 = 0.074	1003.28
280.65 K, m1 = 0.0855	1003.83
280.65 K, m1 = 0.0981	1004.43
280.65 K, m1 = 0.1158	1005.28
281.15 K, m1 = 0.0036	1000.02
281.15 K, m1 = 0.011	1000.36
281.15 K, m1 = 0.0183	1000.7
281.15 K, m1 = 0.033	1001.36
281.15 K, m1 = 0.0443	1001.93
281.15 K, m1 = 0.0536	1002.31
281.15 K, m1 = 0.0623	1002.72
281.15 K, m1 = 0.074	1003.25
281.15 K, m1 = 0.0855	1003.8
281.15 K, m1 = 0.0981	1004.39
281.15 K, m1 = 0.1158	1005.24
281.65 K, m1 = 0.0036	999.986
281.65 K, m1 = 0.011	1000.33
281.65 K, m1 = 0.0183	1000.66
281.65 K, m1 = 0.033	1001.33
281.65 K, m1 = 0.0443	1001.9
281.65 K, m1 = 0.0536	1002.28
281.65 K, m1 = 0.0623	1002.68
281.65 K, m1 = 0.074	1003.21
281.65 K, m1 = 0.0855	1003.76
281.65 K, m1 = 0.0981	1004.35
281.65 K, m1 = 0.1158	1005.2
282.15 K, m1 = 0.0036	999.952
282.15 K, m1 = 0.011	1000.29
282.15 K, m1 = 0.0183	1000.63
282.15 K, m1 = 0.033	1001.29
282.15 K, m1 = 0.0443	1001.86
282.15 K, m1 = 0.0536	1002.24
282.15 K, m1 = 0.0623	1002.64
282.15 K, m1 = 0.074	1003.17
282.15 K, m1 = 0.0855	1003.72
282.15 K, m1 = 0.0981	1004.31
282.15 K, m1 = 0.1158	1005.16
282.65 K, m1 = 0.0036	999.913
282.65 K, m1 = 0.011	1000.25
282.65 K, m1 = 0.0183	1000.59
282.65 K, m1 = 0.033	1001.25
282.65 K, m1 = 0.0443	1001.82
282.65 K, m1 = 0.0536	1002.19
282.65 K, m1 = 0.0623	1002.6
282.65 K, m1 = 0.074	1003.13
282.65 K, m1 = 0.0855	1003.67
282.65 K, m1 = 0.0981	1004.26
282.65 K, m1 = 0.1158	1005.11
283.15 K, m1 = 0.0036	999.87
283.15 K, m1 = 0.011	1000.21
283.15 K, m1 = 0.0183	1000.54
283.15 K, m1 = 0.033	1001.21
283.15 K, m1 = 0.0443	1001.77
283.15 K, m1 = 0.0536	1002.15
283.15 K, m1 = 0.0623	1002.55
283.15 K, m1 = 0.074	1003.08
283.15 K, m1 = 0.0855	1003.63
283.15 K, m1 = 0.0981	1004.21
283.15 K, m1 = 0.1158	1005.06
